Assay results from patent US6737383B1, “Herbicidal oxadiazolidines” (priority 1999, dated 2004).

What was measured:
[1] = tested on: arrowleaf sida; test: Test C postemergence arrowleaf sida; type: in vivo, Sida rhombifolia; conditions: 0 to 100 scale, 0 no effect, 100 complete control
Summary of the method: (§1)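 Greenhouse postemergence test: compound applied in solvent/surfactant formulation to established plants; visual scoring 0–100 against untreated controls after roughly two to three weeks (14–21 days).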

[2] = tested on: barnyardgrass; test: Test C postemergence barnyardgrass; type: in vivo, Echinochloa crus-galli; conditions: 0 to 100 scale, 0 no effect, 100 complete control
Summary of the method: as §1

[3] = tested on: common ragweed; test: Test C postemergence common ragweed; type: in vivo, Ambrosia elatior; conditions: 0 to 100 scale, 0 no effect, 100 complete control
Summary of the method: as §1

[4] = tested on: corn; test: Test C postemergence corn; type: in vivo, Zea mays; conditions: 0 to 100 scale, 0 no effect, 100 complete control
Summary of the method: as §1

[5] = tested on: cotton; test: Test C postemergence cotton; type: in vivo, Gossypium hirsutum; conditions: 0 to 100 scale, 0 no effect, 100 complete control
Summary of the method: as §1

[6] = tested on: eastern black nightshade; test: Test C postemergence eastern black nightshade; type: in vivo, Solanum ptycanthum; conditions: 0 to 100 scale, 0 no effect, 100 complete control
Summary of the method: as §1

[7] = tested on: field bindweed; test: Test C postemergence field bindweed; type: in vivo, Convolvulus arvensis; conditions: 0 to 100 scale, 0 no effect, 100 complete control
Summary of the method: as §1

[8] = tested on: ladysthumb smartweed; test: Test C postemergence ladysthumb smartweed; type: in vivo, Polygonum persicaria; conditions: 0 to 100 scale, 0 no effect, 100 complete control
Procedure: Compounds evaluated in this test were formulated in a non-phytotoxic solvent mixture which included a surfactant and applied to plants that were grown for various periods of time before treatment (postemergence application). A mixture of sandy loam soil and greenhouse potting mix in a 60:40 ratio was used for the postemergence test.
Plantings of these crops and weed species were adjusted to produce plants of appropriate size for the postemergence test. All plant species were grown using normal greenhouse practices. Crop and weed species include arrowleaf sida (Sida rhombifolia), barnyardgrass (Echinochloa crus-galli), cocklebur (Xanthium strumarium), common ragweed (Ambrosia elatior), corn (Zea mays), cotton (Gossypium hirsutum), eastern black nightshade (Solanum ptycanthum), fall panicum (Panicum dichotomiflorum), field bindweed (Convolvulus arvensis), giant foxtail (Setaria faberii), hairy beggarticks (Bidens pilosa), ivyleaf morningglory (Ipomoea hederacea), johnsongrass (Sorghum halepense), ladysthumb smartweed (Polygonum persicaria), lambsquarters (Chenopodium album), large crabgrass (Digitaria sanguinalis), purple nutsedge (Cyperus rotundus), redroot pigweed (Amaranthus retroflexus), soybean (Glycine max), surinam grass (Brachiaria decumbens), velvetleaf (Abutilon theophrasti) and wild poinsettia (Euphorbia heterophylla).
Treated plants and untreated controls were maintained in a greenhouse for approximately 14, to 21 days, after which all treated plants were compared to untreated controls and visually evaluated. Plant response ratings, summarized in Table C, were based upon a 0 to 100 scale where 0 was no effect and 100 was complete control. A dash response (−) means no test result.

[9] = tested on: large crabgrass; test: Test C postemergence large crabgrass; type: in vivo, Digitaria sanguinalis; conditions: 0 to 100 scale, 0 no effect, 100 complete control
Summary of the method: as §1

[10] = tested on: purple nutsedge; test: Test C postemergence purple nutsedge; type: in vivo, Cyperus rotundus; conditions: 0 to 100 scale, 0 no effect, 100 complete control
Summary of the method: as §1

[11] = tested on: soybean; test: Test C postemergence soybean; type: in vivo, Glycine max; conditions: 0 to 100 scale, 0 no effect, 100 complete control
Summary of the method: as §1

[12] = tested on: velvetleaf; test: Test C postemergence velvetleaf; type: in vivo, Abutilon theophrasti; conditions: 0 to 100 scale, 0 no effect, 100 complete control
Summary of the method: as §1

[13] = tested on: wild poinsettia; test: Test C postemergence wild poinsettia; type: in vivo, Euphorbia heterophylla; conditions: 0 to 100 scale, 0 no effect, 100 complete control
Summary of the method: as §1

[14] = tested on: Green foxtail; test: Test D green foxtail; type: in vivo; conditions: Preemergence, 0 to 100 scale
Summary of the method: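 Seeds were sown in greenhouse pots, one species per pot or compartment. Compounds were in a non-phytotoxic solvent mixture with surfactant; preemergence applications went on the sandy loam surface within one day of planting. Injury was rated visually after 14 to 21 days, 0 (none) to 100 (complete control).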

## CC(C)N(C(=O)n1oc(=O)n(C(C)C)c1=O)c1ccc(F)cc1F [Compound 109]
[1]; Rate 140 g/ha
  Plant response rating Arrowleaf sida: 60
[1]; Rate 280 g/ha
  Plant response rating Arrowleaf sida: 70
[1]; Rate 560 g/ha
  Plant response rating Arrowleaf sida: 85
[1]; Rate 1120 g/ha
  Plant response rating Arrowleaf sida: 95
[2]; Rate 140 g/ha
  Plant response rating, Barnyardgrass: 60
[2]; Rate 280 g/ha
  Plant response rating, Barnyardgrass: 85
[2]; Rate 560 g/ha
  Plant response rating, Barnyardgrass: 85
[2]; Rate 1120 g/ha
  Plant response rating, Barnyardgrass: 95
[3]; Rate 140 g/ha
  Plant response rating Common ragweed: 5
[3]; Rate 280 g/ha
  Plant response rating Common ragweed: 10
[3]; Rate 560 g/ha
  Plant response rating Common ragweed: 10
[3]; Rate 1120 g/ha
  Plant response rating Common ragweed: 20
[4]; Rate 140 g/ha
  Plant response rating, Corn: 0
[4]; Rate 280 g/ha
  Plant response rating, Corn: 0
[4]; Rate 560 g/ha
  Plant response rating, Corn: 5
[4]; Rate 1120 g/ha
  Plant response rating, Corn: 55
[5]; Rate 140 g/ha
  Plant response rating Cotton: 10
[5]; Rate 280 g/ha
  Plant response rating Cotton: 50
[5]; Rate 560 g/ha
  Plant response rating Cotton: 70
[5]; Rate 1120 g/ha
  Plant response rating Cotton: 70
[6]; Rate 140 g/ha
  Plant response rating E. blacknightsh: 50
[6]; Rate 280 g/ha
  Plant response rating E. blacknightsh: 80
[6]; Rate 1120 g/ha
  Plant response rating E. blacknightsh: 95
[7]; Rate 140 g/ha
  Plant response rating Field bindweed: 0
[7]; Rate 280 g/ha
  Plant response rating Field bindweed: 0
[7]; Rate 560 g/ha
  Plant response rating Field bindweed: 10
[7]; Rate 1120 g/ha
  Plant response rating Field bindweed: 10
[8]; Rate 280 g/ha
  Plant response rating Ladysthumb: 10
[8]; Rate 560 g/ha
  Plant response rating Ladysthumb: 30
[8]; Rate 1120 g/ha
  Plant response rating Ladysthumb: 95
[9]; Rate 140 g/ha
  Plant response rating Large crabgrass: 10
[9]; Rate 280 g/ha
  Plant response rating Large crabgrass: 60
[9]; Rate 560 g/ha
  Plant response rating Large crabgrass: 90
[9]; Rate 1120 g/ha
  Plant response rating Large crabgrass: 90
[10]; Rate 140 g/ha
  Plant response rating, Purple nutsedge: 0
[10]; Rate 280 g/ha
  Plant response rating, Purple nutsedge: 0
[10]; Rate 560 g/ha
  Plant response rating, Purple nutsedge: 0
[10]; Rate 1120 g/ha
  Plant response rating, Purple nutsedge: 0
[11]; Rate 140 g/ha
  Plant response rating, Soybean: 35
[11]; Rate 280 g/ha
  Plant response rating, Soybean: 70
[11]; Rate 560 g/ha
  Plant response rating, Soybean: 85
[11]; Rate 1120 g/ha
  Plant response rating, Soybean: 85
[12]; Rate 140 g/ha
  Plant response rating, Velvetleaf: 10
[12]; Rate 280 g/ha
  Plant response rating, Velvetleaf: 20
[12]; Rate 560 g/ha
  Plant response rating, Velvetleaf: 50
[12]; Rate 1120 g/ha
  Plant response rating, Velvetleaf: 75
[13]; Rate 140 g/ha
  Plant response rating Wild poinsettia: 10
[13]; Rate 280 g/ha
  Plant response rating Wild poinsettia: 30
[13]; Rate 560 g/ha
  Plant response rating Wild poinsettia: 50
[13]; Rate 1120 g/ha
  Plant response rating Wild poinsettia: 90
[14]; Rate 250 g/ha
  Plant response rating, Green foxtail: 100
[14]; Rate 500 g/ha
  Plant response rating, Green foxtail: 100

## CC(C)N(C(=O)n1oc(=O)n(Cc2ccccc2)c1=O)c1ccccc1 [Compound 94]
[1]; Rate 280 g/ha
  Plant response rating Arrowleaf sida: 10
[1]; Rate 560 g/ha
  Plant response rating Arrowleaf sida: 80
[1]; Rate 1120 g/ha
  Plant response rating Arrowleaf sida: 80
[2]; Rate 140 g/ha
  Plant response rating, Barnyardgrass: 0
[2]; Rate 280 g/ha
  Plant response rating, Barnyardgrass: 0
[2]; Rate 560 g/ha
  Plant response rating, Barnyardgrass: 30
[2]; Rate 1120 g/ha
  Plant response rating, Barnyardgrass: 65
[3]; Rate 140 g/ha
  Plant response rating Common ragweed: 0
[3]; Rate 280 g/ha
  Plant response rating Common ragweed: 0
[3]; Rate 560 g/ha
  Plant response rating Common ragweed: 5
[3]; Rate 1120 g/ha
  Plant response rating Common ragweed: 5
[4]; Rate 140 g/ha
  Plant response rating, Corn: 0
[4]; Rate 280 g/ha
  Plant response rating, Corn: 0
[4]; Rate 560 g/ha
  Plant response rating, Corn: 0
[4]; Rate 1120 g/ha
  Plant response rating, Corn: 0
[5]; Rate 140 g/ha
  Plant response rating Cotton: 20
[5]; Rate 280 g/ha
  Plant response rating Cotton: 70
[5]; Rate 560 g/ha
  Plant response rating Cotton: 70
[5]; Rate 1120 g/ha
  Plant response rating Cotton: 80
[6]; Rate 140 g/ha
  Plant response rating E. blacknightsh: 0
[6]; Rate 280 g/ha
  Plant response rating E. blacknightsh: 40
[6]; Rate 560 g/ha
  Plant response rating E. blacknightsh: 75
[6]; Rate 1120 g/ha
  Plant response rating E. blacknightsh: 95
[7]; Rate 140 g/ha
  Plant response rating Field bindweed: 0
[7]; Rate 280 g/ha
  Plant response rating Field bindweed: 0
[7]; Rate 560 g/ha
  Plant response rating Field bindweed: 0
[7]; Rate 1120 g/ha
  Plant response rating Field bindweed: 0
[8]; Rate 140 g/ha
  Plant response rating Ladysthumb: 5
[8]; Rate 280 g/ha
  Plant response rating Ladysthumb: 10
[8]; Rate 560 g/ha
  Plant response rating Ladysthumb: 85
[8]; Rate 1120 g/ha
  Plant response rating Ladysthumb: 90
[9]; Rate 140 g/ha
  Plant response rating Large crabgrass: 0
[9]; Rate 280 g/ha
  Plant response rating Large crabgrass: 0
[9]; Rate 560 g/ha
  Plant response rating Large crabgrass: 70
[10]; Rate 140 g/ha
  Plant response rating, Purple nutsedge: 0
[10]; Rate 280 g/ha
  Plant response rating, Purple nutsedge: 0
[10]; Rate 560 g/ha
  Plant response rating, Purple nutsedge: 0
[10]; Rate 1120 g/ha
  Plant response rating, Purple nutsedge: 0
[11]; Rate 140 g/ha
  Plant response rating, Soybean: 15
[11]; Rate 280 g/ha
  Plant response rating, Soybean: 15
[11]; Rate 560 g/ha
  Plant response rating, Soybean: 30
[11]; Rate 1120 g/ha
  Plant response rating, Soybean: 55
[12]; Rate 140 g/ha
  Plant response rating, Velvetleaf: 5
[12]; Rate 280 g/ha
  Plant response rating, Velvetleaf: 5
[12]; Rate 560 g/ha
  Plant response rating, Velvetleaf: 20
[12]; Rate 1120 g/ha
  Plant response rating, Velvetleaf: 40
[13]; Rate 140 g/ha
  Plant response rating Wild poinsettia: 0
[13]; Rate 280 g/ha
  Plant response rating Wild poinsettia: 0
[13]; Rate 560 g/ha
  Plant response rating Wild poinsettia: 60
[13]; Rate 1120 g/ha
  Plant response rating Wild poinsettia: 85
[14]; Rate 500 g/ha
  Plant response rating, Green foxtail: 100
